Reference: ChEMBL document CHEMBL1641599, “Design of novel N-phenylnicotinamides as selective cyclooxygenase-1 inhibitors” (Bioorg Med Chem Lett, 2011)

Biological target: T1, Prostaglandin G/H synthase 1 (Ovis aries) (UniProt P05979)
T1 sequence (whole entry): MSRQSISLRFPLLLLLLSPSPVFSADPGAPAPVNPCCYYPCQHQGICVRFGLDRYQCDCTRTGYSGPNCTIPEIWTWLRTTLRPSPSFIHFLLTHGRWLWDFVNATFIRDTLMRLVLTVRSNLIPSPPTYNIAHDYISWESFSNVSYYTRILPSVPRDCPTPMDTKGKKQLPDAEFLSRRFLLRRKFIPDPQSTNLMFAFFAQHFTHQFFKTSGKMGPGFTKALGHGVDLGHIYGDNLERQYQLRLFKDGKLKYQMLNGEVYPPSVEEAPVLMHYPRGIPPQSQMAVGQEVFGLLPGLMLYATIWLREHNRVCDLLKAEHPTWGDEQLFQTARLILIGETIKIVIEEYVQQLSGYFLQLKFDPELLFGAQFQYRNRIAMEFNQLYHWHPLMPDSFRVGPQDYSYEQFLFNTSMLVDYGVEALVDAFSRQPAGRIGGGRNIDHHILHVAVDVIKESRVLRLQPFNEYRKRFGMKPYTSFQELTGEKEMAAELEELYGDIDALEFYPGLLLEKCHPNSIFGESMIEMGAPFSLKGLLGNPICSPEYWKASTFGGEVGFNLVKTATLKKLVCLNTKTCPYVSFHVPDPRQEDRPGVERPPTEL
Experiment: Inhibition of ovine COX1 at 100 uM after 5 mins by microplate reader assay

Compared with `O=C(Nc1ccc(F)cc1)c1ccc(Cl)nc1`, `O=C(Nc1ccc(F)cc1)c1ccc(O)nc1` is higher in inhibition: 41% for the first, 78% for the second.

Going from `Cc1ccc(C(=O)Nc2ccc(Cl)cc2)cn1` to `Cc1ccc(C(=O)Nc2ccc(Br)cc2)cn1`, the inhibition falls from 45% to 35%.

Going from `Cc1ccc(NC(=O)c2ccc(C)nc2)cc1` to `Cc1ccc(C(=O)Nc2ccc(F)cc2)cn1`, the inhibition rises from 10% to 59%.

Going from `COc1ccc(NC(=O)c2ccc(C)nc2)cc1` to `COc1ccc(NC(=O)c2ccc(Cl)nc2)cc1`, the inhibition rises from 26% to 38%.

First: O=C(Nc1ccc(Cl)cc1Cl)c1cnc(O)c(Cl)c1
Second: O=C(Nc1ccc(Cl)cc1Cl)c1cnc(Cl)c(Cl)c1
The inhibition of the first is higher: 72% for the first, 40% for the second.

First: Cc1ccc(NC(=O)c2cccnc2O)cc1
Second: O=C(Nc1ccc(Cl)cc1)c1cccnc1O
The inhibition of the first is lower: 28% for the first, 60% for the second.

Going from `COc1ccc(NC(=O)c2cccnc2O)cc1` to `O=C(Nc1ccc(Br)cc1)c1cccnc1O`, the inhibition rises from 42% to 47%.

Compared with `Cc1ccc(NC(=O)c2cnc(Cl)c(Cl)c2)cc1`, `O=C(Nc1ccc(Br)cc1)c1cnc(Cl)c(Cl)c1` is lower in inhibition: 37% for the first, 33% for the second.

Going from `O=C(Nc1ccc(Cl)cc1)c1cncc(Br)c1` to `O=C(Nc1ccc(Br)cc1)c1cncc(Br)c1`, the inhibition falls from 13% to 5%.

Going from `O=C(Nc1ccc(F)cc1)c1cnc(O)c(Cl)c1` to `O=C(Nc1ccc(F)cc1)c1cnc(Cl)c(Cl)c1`, the inhibition falls from 90% to 45%.

Going from `Cc1ccc(NC(=O)c2ccc(O)nc2)cc1` to `Cc1ccc(NC(=O)c2ccc(Cl)nc2)cc1`, the inhibition falls from 40% to 25%.

Going from `O=C(Nc1ccc(Cl)cc1)c1cnc(Cl)c(Cl)c1` to `O=C(Nc1ccc(Cl)cc1)c1cnc(O)c(Cl)c1`, the inhibition rises from 42% to 84%.

Compared with `COc1ccc(NC(=O)c2ccc(O)nc2)cc1`, `O=C(Nc1ccc(Br)cc1)c1ccc(O)nc1` is higher in inhibition: 53% for the first, 64% for the second.

Going from `O=C(Nc1cc(Cl)cc(Cl)c1)c1cnc(O)c(Cl)c1` to `O=C(Nc1cc(Cl)cc(Cl)c1)c1cnc(Cl)c(Cl)c1`, the inhibition falls from 63% to 34%.

First: O=C(Nc1ccc(Br)cc1)c1ccc(Cl)nc1
Second: O=C(Nc1ccc(Cl)cc1)c1ccc(Cl)nc1
The inhibition of the first is lower: 18% for the first, 42% for the second.

Compared with `Cc1ccc(C(=O)Nc2ccc(Cl)cc2Cl)cn1`, `Cc1ccc(C(=O)Nc2cc(Cl)cc(Cl)c2)cn1` is lower in inhibition: 38% for the first, 20% for the second.

First: COc1ccc(NC(=O)c2cncc(Br)c2)cc1
Second: COc1ccc(NC(=O)c2cnc(O)c(Cl)c2)cc1
The inhibition of the first is lower: 0% for the first, 64% for the second.

Going from `O=C(Nc1ccc(Br)cc1)c1cnc(O)c(Cl)c1` to `Cc1ccc(NC(=O)c2cnc(O)c(Cl)c2)cc1`, the inhibition falls from 58% to 50%.

Going from `O=C(Nc1ccc(Cl)cc1)c1ccc(O)nc1` to `O=C(Nc1ccc(F)cc1)c1cccnc1O`, the inhibition falls from 75% to 64%.

First: O=C(Nc1cccc(Cl)c1)c1cccnc1O
Second: O=C(Nc1ccc(Cl)cc1Cl)c1cncc(Br)c1
The inhibition of the first is higher: 35% for the first, 19% for the second.

Biological target: T2, Prostaglandin G/H synthase 1 (Ovis aries, UniProt P05979)
T2 sequence (P05979 whole entry): T1 sequence (whole entry)
Experiment: Inhibition of ovine COX1 after 5 mins by microplate reader assay

Compared with `O=C(Nc1ccc(Br)cc1)c1ccc(=O)[nH]c1`, `COc1ccc(NC(=O)c2ccc(=O)[nH]c2)cc1` is 2.9-fold higher in IC50: 30 µM for the first, 86 µM for the second.

First: O=C(Nc1ccc(F)cc1)c1ccc(O)nc1
Second: Cc1ccc(C(=O)Nc2ccc(F)cc2)cn1
The IC50 of the first is 20-fold lower: 3.5 µM for the first, 70 µM for the second.

Compared with `Cc1ccc(NC(=O)c2c[nH]c(=O)c(Cl)c2)cc1`, `O=C(Nc1ccc(F)cc1)c1c[nH]c(=O)c(Cl)c1` is 140-fold lower in IC50: 95 µM for the first, 0.68 µM for the second. The second is the more potent here.

Compared with `O=C(Nc1ccc(Cl)cc1Cl)c1cnc(O)c(Cl)c1`, `O=C(Nc1cc(Cl)cc(Cl)c1)c1cnc(O)c(Cl)c1` is 1.8-fold higher in IC50: 16 µM for the first, 29 µM for the second. The first is the more potent here.

Going from `O=C(Nc1ccc(Cl)cc1)c1cccnc1O` to `O=C(Nc1ccc(Cl)cc1)c1ccc(O)nc1`, the IC50 falls from 28 µM to 9.2 µM (3-fold). The second is the more potent here.

First: COc1ccc(NC(=O)c2c[nH]c(=O)c(Cl)c2)cc1
Second: O=C(Nc1ccc(Cl)cc1)c1c[nH]c(=O)c(Cl)c1
The IC50 of the first is 16-fold higher: 44 µM for the first, 2.7 µM for the second. The second is the more potent here.

Compared with `O=C(Nc1ccc(Br)cc1)c1cnc(O)c(Cl)c1`, `O=C(Nc1ccc(F)cc1)c1ccc[nH]c1=O` is 2.3-fold lower in IC50: 74 µM for the first, 32 µM for the second. The second is the more potent here.
